According to patent publication US10131663B2, “Chemical compounds” (AstraZeneca AB, priority 2016, dated 2018):
≈ marks a conversion by molar mass, not a printed value.

How the values were obtained:
[1] = Thermodynamic solubility (shake-flask); format: physicochemical; conditions: aqueous phosphate buffer, 25 °C, pH 7.4, aqueous buffer, thermodynamic from solid, aqueous phosphate buffer pH 7.4, 24 hours
How it was run: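 Shake-flask method starting from 10 mM DMSO stocks, which are dried before use. Residue equilibrated 24 h at 25° C. in aqueous phosphate buffer, pH 7.4. Dissolved fraction separated and quantified by UPLC/MS/MS, with QC samples in each run.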

[2] = log D (shake flask, 1-octanol/aqueous buffer); format: physicochemical; conditions: pH 7.4, 1-octanol/aqueous buffer
How it was run: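 Distribution between 1-octanol and aqueous buffer at pH 7.4 was measured by shake flask, with compounds run in mixtures of ten. Relative concentrations in each phase were quantified by UPLC with quantitative MS. Caffeine served as a low-log D QC sample in all runs.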

[3] = Human Caco-2 bidirectional permeability A to B and B to A; format: in vitro ADME; conditions: Caco-2, 2 hours, pH 7.4
[4] = Human plasma protein binding (equilibrium dialysis); format: in vitro ADME; conditions: dialysis 18 hours
How it was run: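 Fraction unbound (fu %) in human plasma, from LC/MSMS of plasma and buffer sides (7-point plasma calibration) after 18 h rapid equilibrium dialysis. Single determinations, with compounds pooled up to 10 per plasma pool.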

[5] = Human Caco-2 passive permeability A to B Papp; format: in vitro ADME; conditions: apical pH 6.5, basolateral pH 7.4, efflux inhibitor cocktail
Experimental: An automated assay was used to determine the passive permeability of compounds in Caco-2 cell monolayers carried out over 2 hours with an apical pH of 6.5 and basolateral pH of 7.4. The Caco-2 AB inhibition assay is carried out with chemical inhibition of the three major efflux transporters ABCB1 (P-gp), ABCG2 (BCRP) and ABCC2 (MRP2) in Caco-2 cells. Incubation of both apical and basolateral is carried out with a cocktail of inhibitors (50 μM quinidine, 20 μM sulfasalazine and 100 μM benzbromarone). Samples were analyzed through LC/MS/MS to estimate the apparent permeability coefficients (Papp) of compounds across Caco-2 cell monolayers and results are quoted in units of ×10^−6 cm/s.

ERα receptor = ERα receptor (Homo sapiens (Human), UniProt P03372); conditions: 500 mg monthly dose; cited from earlier work
Chain of ERα receptor (P03372 whole entry): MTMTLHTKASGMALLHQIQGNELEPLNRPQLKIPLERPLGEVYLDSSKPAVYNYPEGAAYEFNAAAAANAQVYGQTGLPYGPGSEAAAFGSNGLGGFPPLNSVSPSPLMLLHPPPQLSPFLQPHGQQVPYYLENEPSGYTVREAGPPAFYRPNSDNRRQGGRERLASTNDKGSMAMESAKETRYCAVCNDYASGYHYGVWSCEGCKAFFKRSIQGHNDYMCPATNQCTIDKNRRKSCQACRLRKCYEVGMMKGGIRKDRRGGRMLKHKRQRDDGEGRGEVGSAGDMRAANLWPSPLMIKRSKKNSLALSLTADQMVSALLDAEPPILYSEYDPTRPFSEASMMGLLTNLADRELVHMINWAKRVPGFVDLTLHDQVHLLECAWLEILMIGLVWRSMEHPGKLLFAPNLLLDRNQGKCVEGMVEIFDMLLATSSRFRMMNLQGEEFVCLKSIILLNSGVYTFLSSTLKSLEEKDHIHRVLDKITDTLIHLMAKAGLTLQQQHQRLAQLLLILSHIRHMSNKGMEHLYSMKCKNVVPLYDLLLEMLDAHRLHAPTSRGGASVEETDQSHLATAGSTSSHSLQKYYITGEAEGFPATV

| Compound | solubility at 24 h [1] [µM] | logD [2] | Papp at 2 h [3] [×10⁻⁶ cm/s] | Human plasma protein binding (% free) [4] [% free] | Papp at 2 h [5] [×10⁻⁶ cm/s] | turnover of the receptor in patient samples (ERα receptor) |
| --- | --- | --- | --- | --- | --- | --- |
| C[C@@H]1Cc2c(ccc3[nH]ncc23)[C@@H](c2ccc(NC3CN(CCCF)C3)c(F)n2)N1CC(F)(F)F [Example 29, 2-fluoro-N-(1-(3-fluoropropyl)azetidin-3-yl)-6-((6S,8R)-8-methyl-7-(2,2,2-trifluoroethyl)-6,7,8,9-tetrahydro-3H-pyrazolo[4,3-f]isoquinolin-6-yl)pyridin-3-amine] | 779 (≈ 385 µg/mL) | 3 | 12 | 16 | 24 |  |
| C[C@]12CC[C@@H]3c4ccc(O)cc4C[C@@H](CCCCCCCCC[S+]([O-])CCCC(F)(F)C(F)(F)F)[C@H]3[C@@H]1CC[C@@H]2O (stereo partly drawn) [Fulvestrant, fulvestrant] |  |  |  |  |  | less than 50% |
